Patent US9884040B2, “Desethylamiodarone for use in cancer treatment” (PÉCSI TUDOMÁNYEGYETEM, priority 2015, dated 2018)

Columns and labels:
[1] = tested on: HeLa (human cervix adenocarcinoma) cells; assay: MTT cell viability assay, HeLa; type: cell-based; details: increasing concentrations, 24 and 48 h
Procedure: (§1) The cells were seeded into 96-well plates at a starting density of 10^4 cells per well and cultured overnight before DEA was added to the medium for 24 h and 48 h. The medium was changed to a fresh one containing 0.5% of 3-[4,5-dimethylthiazol-2-yl]-2,5-diphenyl-tetrazolium bromide (MTT+) for an additional 3 hours, then the MTT+ reaction was terminated by adding HCl to 10 mM final concentration. The amount of blue formazan dye formed from MTT+ was proportional to the number of live cells, and was determined with an Anthos Labtech 2010 ELISA reader at 550 nm. All experiments were run in at least 4 replicates and repeated 3 times.
The effect of desethylamiodarone was measured in T24 (human urinary bladder carcinoma), A549 (human lung adenocarcinoma epithelial), B16F10 (mice melanoma), HeLa (human cervix adenocarcinoma), 4T1 (mouse mammary carcinoma) cell lines. Cells were treated with increasing concentrations of desethylamiodarone for 24 and 48 h. Cell growth was assessed by measuring metabolic activity, which reflects viability in the MTT-test in the course of 24 h, 48 h of continued exposure to desethylamiorarone. The untreated cells served as negative controls. The viability of the cells, was lower in all DEA-treated than in the control group, with the difference being statistically significant.

[2] = tested on: MCF 7 breast cancer cell line; assay: MTT cell viability assay, MCF 7; type: cell-based; details: increasing concentrations, 24, 48 and 72 hours
Procedure: as §1
MCF 7 cells were exposed to increasing concentrations of DEA for 24, 48 and 72 hours. Viability of the cells was detected by the MTT method. Untreated cells served as controls.

[3] = repetitive exposures; cited from earlier work
AKT (protein kinase B) = assay: Western blot of Akt phosphorylation; type: cell-based, human; details: 5-10-15 μM, 6 hours; T24, B16F10 cell lines
Procedure: 10^6 cells were seeded into regular plates and treated as for the cell viability assay. Cells were harvested at intervals in a chilled lysis buffer containing 0.5 mM sodium-metavanadate, 1 mM ethylenediaminetetraacetic acid (EDTA) and protease inhibitor cocktail in phosphate-buffered saline (PBS). Probes were boiled and subjected to 10% sodium dodecyl sulphate polyacrylamide gel electrophoresis then transferred to nitrocellulose membranes. The membranes were blocked in 5% low fat milk for 1.5 h at room temperature then exposed to primary antibodies at 4° C. overnight in blocking solution. Appropriate horseradish peroxidase-conjugated secondary antibodies were used at a 1:5000 dilution (anti-mouse and anti-rabbit IgGs; Sigma-Aldrich, Steinheim, Germany) and visualized by enhanced chemiluminescence (Amersham Biosciences, Piscataway, N.J., USA). All experiments were repeated 3 times.
To determine the downstream consequences of DEA treatment, we examined the phosphorylation status of AKT (protein kinase B), GSK-3β and p42/44 mitogen-activated protein kinase (MAPK) (ERK1/2) by immunoblotting in T24 (human urinary bladder carcinoma), B16F10 (mice melanoma) cell lines. Cells were cultured in the presence of 5-10-15 μM DEA for 6 hours. The cells were prepared and western blot analysis was carried out to perform both phosphorylated and non-phosphorylated forms of the previously listed proteins. […]

[4] = tested on: B16F10 melanoma lung metastasis; assay: Mouse model of B16F10 lung metastasis; type: in vivo, C57BL/6 mice
Procedure: To produce experimental metastasis model, male C57BL/6 mice (6 weeks old) were used. B16F10 cells ([…]/0.1 ml) were injected into the lateral tail vein of C57BL/6 mice, using a 30G1/2 needle and a 1-mL syringe. Mice were randomly divided into 3 groups of 6 mice each. Each mouse was given a daily intragastric injection of either 100 μl 15% ethanol solution as the vehicle control or 25 mg/kg DEA. Treatment was started 1 day before cell injection and was given every third day, lasted for consecutive 16 days Sixteen days after injection, the animals were weighed and killed. The lungs were removed, rinsed in PBS, and weighed. The lung weight index was calculated as the ratio of lung weight vs body weight. The harvested lungs were fixed in 4% formalin. Tumor foci on the surfaces of the lungs were counted under a stereomicroscope. Then, the whole lung was embedded in optimum cutting temperature compound (Sakura Finetek, SA), sectioned ([…], 5 levels), and stained with hematoxylin and eosin (H&E) according to routine protocols. […] The percentage of total area of the stained sections occupied by tumor was measured using the Panoramic viewer 1.15.4 (3[…], Hungary) Murine melanoma B16F10 cells were injected into the lateral tail vein of 6-weeks-old male C57BL/6 mice and divided into two groups (6 mice/group). […] Lungs were photographed (FIG. 9 A,B), weighted and lung weight index was calculated as the ratio of lung weight versus body weight of host mice, and was compared between the two groups. […] Metastatic nodules on lung surface were counted. […] 24 h after injection of melanoma B16F10 cells, mice in the control group were treated with vehicle (alcohol), mice in the treatment group were injected with desethylamiodarone (25 mg/kg, i.p., every 3rd day.) After 16 day's mice were sacrificed and then analyzed. […] Lung weight was determined and lung weight index was calculated (C). Tumor growth was monitored also by counting the tumor nodules (D). […] Lung tissue sections were analyzed histopathological after H & E staining. […]

[5] = 25 mg/kg i.p. every 3rd day, day 16, B16F10 tail vein injection

CCCCc1oc2ccccc2c1C(=O)c1cc(I)c(OCCNCC)c(I)c1 [DEA, (2-butyl-3-benzofuranyl)[4-[2-(ethylamino)ethoxy]-3,5-diiodophenyl]-methanone]
Viability of HeLa cells (MTT) [1]: significantly inhibited the viability | Viability of MCF 7 cells (MTT) [2]: induces cell death | Drug accumulation in cell cultures [3]: always higher than that of AM | Akt (Ser473) phosphorylation (AKT (protein kinase B)): repressed Akt (Ser473) phosphorylation in a concentration-dependent manner | Lung weight index (lung weight versus body weight) [4, 5]: significantly *P<0.001 inhibited lung weight increase | Number of tumor nodules on lung surface [4, 5]: dramatically decrease in the number of tumor nodules | Percentage of tumor area over lung section area (H&E) ([4]; 25 mg/kg/3 days, n=6 per group): significantly decreased
